Laboratory results published in patent US9981972B2, “N-hydroxy bicyclic hydantoin carbamates as tools for identification of serine hydrolase targets” (ABIDE THERAPEUTICS, INC., priority 2014, dated 2018).
Read-outs that look alike come from different tables or passages of the source.

Tests used:
Type in all cases: biochemical
PPT1 = molecular target: T1, PPT1 (Homo sapiens, UniProt P50897); test: PPT1 substrate assay in vitro, hPPT1-transfected HEK293T cell lysates; design: expressed in transfected cells; host or cells: HEK293T; conditions: for activity against PPT1 in situ and in vitro: in words, figures in the 9th table
T1 sequence (P50897 28-306): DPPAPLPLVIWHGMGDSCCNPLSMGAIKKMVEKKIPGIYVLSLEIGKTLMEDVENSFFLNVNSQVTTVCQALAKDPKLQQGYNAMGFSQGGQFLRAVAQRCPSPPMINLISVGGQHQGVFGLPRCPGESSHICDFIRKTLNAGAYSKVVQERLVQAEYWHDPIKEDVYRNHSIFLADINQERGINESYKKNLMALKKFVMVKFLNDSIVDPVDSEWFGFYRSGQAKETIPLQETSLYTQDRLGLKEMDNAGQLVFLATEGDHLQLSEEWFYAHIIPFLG
Method: PPT1 activity was assessed in vitro using a substrate assay adapted from previous studies (van Diggelen et al., Molecular genetics and metabolism 66, 240-244, 1999). Lysates from HEK293T cells transfected with an empty vector, or human PPT1 under a CMV promoter were adjusted to 1 mg/ml in PBS (25 μl), and then combined 1:1 with Mcllvain's phosphate/citrate buffer containing 0.375% (v/v) Triton-X 100 and 15 mM DTT (pH 5.0). This sample was pre-treated with inhibitor or DMSO for 30 minutes at 37° C., and 10 μl (5 μg protein) was used in the substrate assay as follows: Samples were diluted in a black 96-well plate (half-area) with 20 μl McIlvain's phosphate/citrate buffer (pH 5.0) containing 0.375% TX-100 and 15 mM DTT, as well as 0.64 mM MU-6S-Palm-PD-Glc and 0.1 U sweet almond glucosidase (Sigma). The reactions were incubated at 37° C. for 1 hour, quenched with 120 μl sodium bicarbonate buffer (pH 10.0), and hydrolysis by 4-MU fluorescence measured by excitement at […] and emission intensity at […]. 16 μg protein was used for analysis of native PC3 cells.
Compound 26 was then tested to see if it inhibited PPT1 activity using a substrate assay. Endogenous substrates for PPT1 remain poorly characterized, but this enzyme was assayed with a fluorogenic substrate 4-methylumbelliferyl-6-thio-palmitate-βD-glucopyranoside (MU-6S-Palm-βD-Glc). In this assay, PPT1 hydrolyzes the substrate's palmitoyl thioester bond, and exogenous sweet almond β-glucosidase deglycosylates and frees the fluorophore, 4-methylumbelliferone (4-MU), which is measured to assess PPT1 activity.

mABHD3 = molecular target: T2, mABHD3 (Mus musculus, UniProt Q91ZH7); test: Gel-based competitive ABPP, recombinant enzyme in transfected HEK293T cell lysates
T2 construct: expressed in transfected cells; host or cells: HEK293T, transient transfection, pCMV-Sport6; lysate used in vitro
T2 sequence (Q91ZH7 1-411): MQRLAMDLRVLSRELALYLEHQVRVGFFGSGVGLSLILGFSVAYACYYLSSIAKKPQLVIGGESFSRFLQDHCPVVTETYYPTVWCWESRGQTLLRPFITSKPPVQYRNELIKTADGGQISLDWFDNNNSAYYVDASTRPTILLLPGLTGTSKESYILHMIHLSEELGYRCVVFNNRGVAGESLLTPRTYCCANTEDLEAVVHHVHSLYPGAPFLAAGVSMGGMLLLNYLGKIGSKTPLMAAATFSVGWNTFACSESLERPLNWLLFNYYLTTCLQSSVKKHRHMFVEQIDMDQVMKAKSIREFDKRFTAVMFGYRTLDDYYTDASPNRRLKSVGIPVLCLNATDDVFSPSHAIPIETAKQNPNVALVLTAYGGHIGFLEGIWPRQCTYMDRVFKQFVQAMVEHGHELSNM
Method: HEK293T cells were seeded at 2×10^5 per well on 6 well plates and grown for 48 h. They were then transfected with mABHD3 (pCMV-Sport6), hABHD4 (pcDNA3.1/myc-his), hPPT1 (pCMV6-XL5), or hPPT1 S115A (pCMV6-XL5), by incubating 0.5 μg of DNA with 3 μL of PEI MAX (1 mg/mL, Polysciences, Inc) in serum-free DMEM for 30 min, then adding them to cells. After 48 h cells were either treated with compound in situ, as described above, or harvested for in vitro studies. The […] PPT1 mutation was introduced using QuikChange II Site Directed Mutagenesis Kit (Agilent) with the following primers: […]
Human ABHD3 and ABHD4 were recombinantly expressed by transient transfection in HEK293T cells, and the cell lysates were combined to provide a convenient assay for monitor inhibition of both enzymes by gel-based ABPP (see FIG. 8A).

ABHD4 = molecular target: T3, ABHD4 (Homo sapiens, UniProt Q8TB40); test: as above; design: myc-his; expressed in transfected cells; host or cells: HEK293T, transient transfection, pcDNA3.1/myc-his; lysate used in vitro; conditions: recombinant
T3 sequence (Q8TB40 1-342): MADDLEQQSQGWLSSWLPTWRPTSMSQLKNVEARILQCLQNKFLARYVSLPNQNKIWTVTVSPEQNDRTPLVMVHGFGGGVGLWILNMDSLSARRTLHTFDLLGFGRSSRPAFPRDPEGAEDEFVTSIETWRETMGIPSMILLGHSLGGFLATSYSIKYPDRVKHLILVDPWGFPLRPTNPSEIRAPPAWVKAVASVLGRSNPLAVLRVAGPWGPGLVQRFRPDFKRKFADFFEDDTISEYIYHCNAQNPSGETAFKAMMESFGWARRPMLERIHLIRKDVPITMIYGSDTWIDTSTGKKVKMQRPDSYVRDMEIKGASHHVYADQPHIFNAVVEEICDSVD
Outline: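 Human ABHD4 was expressed by transient transfection in HEK293T cells, and lysates were combined with those expressing ABHD3. Inhibition was monitored by gel-based competitive activity-based protein profiling, with compound applied either in situ to cells or in vitro to lysates.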

[1] = cell lysates, pH 5.0, MU-6S-Palm-βD-Glc substrate, 95% confidence intervals in parentheses, read-out: IC50 for inhibition of human PPT1, in vitro (substrate)
[2] = transfected HEK293T lysates, read-out: mABHD3 in vitro potency (IC50)
[3] = transfected HEK293T lysates, read-out: hABHD4 in vitro potency (IC50)

| IC50 (PPT1; [1]) | activity against PPT1 in situ and in vitro (PPT1) | IC50 (mABHD3; [2]) | IC50 (ABHD4; [3]) | Structure (SMILES) | also measured |
| --- | --- | --- | --- | --- | --- |
| 15 µM | did, however, inhibit PPT1 activity |  |  | O=C(ON1C(=O)C2CN(C(=O)N3CCOCC3)CCN2C1=O)N1CCC(CCc2ccc(Cl)cc2)CC1 (centres unmarked) [Compound 1, 7-(morpholine-4-carbonyl)-1,3-dioxohexahydroimidazo[1,5-a]pyrazin-2(3H)-yl 4-(4-chloro-phenethyl)piperidine-1-carboxylate] |  |
|  |  |  |  | COc1ccc(N2CCN(C(=O)ON3C(=O)C4CN(CC5CCN(Cc6ccccc6)CC5)CCN4C3=O)CC2)cc1 (centres unmarked) [Compound 26, 7-((1-benzylpiperidin-4-yl)methyl)-1,3-dioxohexahydroimidazo[1,5-a]pyrazin-2(3H)-yl 4-(4-methoxyphenyl)piperazine-1-carboxylate] | IC50 (PPT1; transfected lysates, pH 5.0, MU-6S-Palm-βD-Glc, read-out: PPT1 IC50, substrate assay): 6.5 µM |
| > 50 µM | limited activity against PPT1 | > 10 µM | ~1 µM | O=C(ON1C(=O)C2CN(Cc3ccc(Oc4ccccc4)cc3)CCN2C1=O)N1CCOCC1 (centres unmarked) [Compound 34, 1,3-dioxo-7-(4-phenoxybenzyl)hexahydroimidazo[1,5-a]pyrazin-2(3H)-yl morpholine-4-carboxylate] |  |
|  |  | 7.6 µM | 0.1 µM | COc1ccc(N2CCN(C(=O)ON3C(=O)C4CN(Cc5ccc(Oc6ccccc6)cc5)CCN4C3=O)CC2)cc1 (centres unmarked) [Compound 37, 1,3-dioxo-7-(4-phenoxybenzyl)hexahydroimidazo[1,5-a]pyrazin-2(3H)-yl 4-(4-methoxyphenyl)piperazine-1-carboxylate] | preference ABHD4 over ABHD3 (ABHD4; combined HEK293T lysates, gel-based ABPP): preferentially inhibited ABHD4 over ABHD3 |
|  |  | 0.1 µM |  | O=C(ON1C(=O)C2CN(Cc3ccc(Oc4ccccc4)cc3)CCN2C1=O)N1CCC(c2ccccc2)CC1 (centres unmarked) [Compound 38, 1,3-dioxo-7-(4-phenoxybenzyl)hexahydroimidazo[1,5-a]pyrazin-2(3H)-yl 4-phenylpiperidine-1-carboxylate] | IC50 (mABHD3; combined HEK293T lysates, gel-based ABPP, read-out: ABHD3 IC50): 0.13 µM; IC50 (ABHD4; combined HEK293T lysates, gel-based ABPP, read-out: ABHD4 IC50): 0.03 µM |
|  |  |  |  | COc1ccc(N2CCN(C(=O)ON3C(=O)[C@@H]4CN(CC5CCN(Cc6ccccc6)CC5)CCN4C3=O)CC2)cc1 [Compound 42, (S)-7-((1-benzylpiperidin-4-yl)methyl)-1,3-dioxo-hexahydroimidazo[1,5-a]pyrazin-2(3H)-yl 4-(4-methoxyphenyl)piperazine-1-carboxylate] | IC50 (PPT1; human PPT1, in vitro, method not stated at Table 5, read-out: hPPT1 in vitro potency (IC50)): 3.97 µM |
